Data reported in the supplement of paper PMC12076712.

Key:
Assay in all cases: pIC50, kinobeads binding competition
Details in all cases: cell material: Jurkat lysate
KSR1 = biological target: T1, KSR1 (UniProt Q8IVT5)
T1 sequence (whole entry): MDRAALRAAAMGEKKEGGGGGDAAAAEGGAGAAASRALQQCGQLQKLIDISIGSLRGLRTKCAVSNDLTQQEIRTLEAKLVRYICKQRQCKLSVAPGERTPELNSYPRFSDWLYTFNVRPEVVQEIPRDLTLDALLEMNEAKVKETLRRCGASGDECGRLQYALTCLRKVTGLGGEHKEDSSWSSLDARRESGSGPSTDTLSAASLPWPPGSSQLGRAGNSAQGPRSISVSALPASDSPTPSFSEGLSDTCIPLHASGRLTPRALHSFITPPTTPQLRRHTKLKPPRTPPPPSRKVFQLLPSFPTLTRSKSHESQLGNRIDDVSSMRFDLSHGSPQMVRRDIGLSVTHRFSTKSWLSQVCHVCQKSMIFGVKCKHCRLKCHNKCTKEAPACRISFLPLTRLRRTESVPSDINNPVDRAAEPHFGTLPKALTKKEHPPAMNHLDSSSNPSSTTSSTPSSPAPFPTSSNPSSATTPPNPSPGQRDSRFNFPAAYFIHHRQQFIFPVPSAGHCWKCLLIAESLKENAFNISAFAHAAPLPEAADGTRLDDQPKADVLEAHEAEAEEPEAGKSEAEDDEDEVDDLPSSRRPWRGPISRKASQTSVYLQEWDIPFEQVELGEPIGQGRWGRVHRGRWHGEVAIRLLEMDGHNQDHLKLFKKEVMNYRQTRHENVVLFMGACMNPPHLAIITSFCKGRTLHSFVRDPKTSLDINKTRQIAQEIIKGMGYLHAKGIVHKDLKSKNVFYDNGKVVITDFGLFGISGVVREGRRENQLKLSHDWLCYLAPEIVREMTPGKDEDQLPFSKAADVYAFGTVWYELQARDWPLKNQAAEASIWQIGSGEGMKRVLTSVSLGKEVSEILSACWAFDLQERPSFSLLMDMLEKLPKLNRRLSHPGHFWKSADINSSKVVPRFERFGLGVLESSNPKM

PIK3R4 = PIK3R4 (UniProt Q99570)
Chain of PIK3R4 (Q99570 whole entry): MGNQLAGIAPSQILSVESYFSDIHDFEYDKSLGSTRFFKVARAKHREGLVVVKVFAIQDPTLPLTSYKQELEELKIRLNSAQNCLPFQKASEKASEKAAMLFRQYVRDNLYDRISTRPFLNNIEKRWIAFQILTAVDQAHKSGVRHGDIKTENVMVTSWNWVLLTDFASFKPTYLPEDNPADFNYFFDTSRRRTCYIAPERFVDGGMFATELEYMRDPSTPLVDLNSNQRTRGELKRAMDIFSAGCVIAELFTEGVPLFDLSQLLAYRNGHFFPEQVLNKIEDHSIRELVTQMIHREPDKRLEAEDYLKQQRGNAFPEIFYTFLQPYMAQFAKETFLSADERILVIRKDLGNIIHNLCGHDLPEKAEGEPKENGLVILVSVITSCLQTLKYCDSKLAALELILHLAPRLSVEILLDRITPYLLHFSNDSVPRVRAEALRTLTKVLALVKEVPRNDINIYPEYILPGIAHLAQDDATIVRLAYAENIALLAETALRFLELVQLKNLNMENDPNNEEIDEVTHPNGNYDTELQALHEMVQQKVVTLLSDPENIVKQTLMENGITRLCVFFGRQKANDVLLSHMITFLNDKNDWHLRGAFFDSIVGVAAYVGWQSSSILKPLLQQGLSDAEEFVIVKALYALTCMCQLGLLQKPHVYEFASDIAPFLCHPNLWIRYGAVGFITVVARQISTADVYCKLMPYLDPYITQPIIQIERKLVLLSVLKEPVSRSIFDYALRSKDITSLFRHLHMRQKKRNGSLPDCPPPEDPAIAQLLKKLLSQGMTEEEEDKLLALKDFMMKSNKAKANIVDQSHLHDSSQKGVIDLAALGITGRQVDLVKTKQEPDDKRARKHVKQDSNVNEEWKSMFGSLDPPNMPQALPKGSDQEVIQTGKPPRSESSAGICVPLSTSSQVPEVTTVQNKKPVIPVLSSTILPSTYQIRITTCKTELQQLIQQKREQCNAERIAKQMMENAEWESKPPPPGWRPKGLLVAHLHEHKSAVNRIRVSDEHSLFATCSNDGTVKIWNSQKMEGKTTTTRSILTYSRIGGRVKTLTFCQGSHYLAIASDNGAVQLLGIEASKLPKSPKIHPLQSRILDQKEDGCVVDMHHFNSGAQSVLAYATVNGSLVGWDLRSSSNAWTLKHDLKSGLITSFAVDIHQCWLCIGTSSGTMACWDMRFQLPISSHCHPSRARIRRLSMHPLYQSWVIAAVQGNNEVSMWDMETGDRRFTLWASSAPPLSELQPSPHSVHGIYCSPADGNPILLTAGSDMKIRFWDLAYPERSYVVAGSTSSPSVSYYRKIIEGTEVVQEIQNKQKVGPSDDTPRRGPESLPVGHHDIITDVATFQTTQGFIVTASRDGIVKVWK

TGFBR2 = TGFBR2 (UniProt P37173)
Chain of TGFBR2 (P37173 whole entry): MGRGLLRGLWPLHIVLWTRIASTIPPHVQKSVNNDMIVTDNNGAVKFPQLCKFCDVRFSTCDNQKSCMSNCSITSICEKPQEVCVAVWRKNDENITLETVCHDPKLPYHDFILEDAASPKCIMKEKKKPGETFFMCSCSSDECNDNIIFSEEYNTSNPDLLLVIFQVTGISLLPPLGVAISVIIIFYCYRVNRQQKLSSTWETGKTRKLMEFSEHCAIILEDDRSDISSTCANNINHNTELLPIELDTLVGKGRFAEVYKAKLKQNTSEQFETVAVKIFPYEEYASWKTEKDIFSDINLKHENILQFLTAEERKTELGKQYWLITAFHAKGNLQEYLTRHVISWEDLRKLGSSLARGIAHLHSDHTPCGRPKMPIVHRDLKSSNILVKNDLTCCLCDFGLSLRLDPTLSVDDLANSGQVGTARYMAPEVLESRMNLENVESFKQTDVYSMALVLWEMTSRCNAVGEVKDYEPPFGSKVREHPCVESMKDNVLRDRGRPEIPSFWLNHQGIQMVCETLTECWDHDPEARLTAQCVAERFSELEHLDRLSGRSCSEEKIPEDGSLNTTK

UniProt O43318 = biological target: T2, UniProt O43318
T2 sequence (whole entry): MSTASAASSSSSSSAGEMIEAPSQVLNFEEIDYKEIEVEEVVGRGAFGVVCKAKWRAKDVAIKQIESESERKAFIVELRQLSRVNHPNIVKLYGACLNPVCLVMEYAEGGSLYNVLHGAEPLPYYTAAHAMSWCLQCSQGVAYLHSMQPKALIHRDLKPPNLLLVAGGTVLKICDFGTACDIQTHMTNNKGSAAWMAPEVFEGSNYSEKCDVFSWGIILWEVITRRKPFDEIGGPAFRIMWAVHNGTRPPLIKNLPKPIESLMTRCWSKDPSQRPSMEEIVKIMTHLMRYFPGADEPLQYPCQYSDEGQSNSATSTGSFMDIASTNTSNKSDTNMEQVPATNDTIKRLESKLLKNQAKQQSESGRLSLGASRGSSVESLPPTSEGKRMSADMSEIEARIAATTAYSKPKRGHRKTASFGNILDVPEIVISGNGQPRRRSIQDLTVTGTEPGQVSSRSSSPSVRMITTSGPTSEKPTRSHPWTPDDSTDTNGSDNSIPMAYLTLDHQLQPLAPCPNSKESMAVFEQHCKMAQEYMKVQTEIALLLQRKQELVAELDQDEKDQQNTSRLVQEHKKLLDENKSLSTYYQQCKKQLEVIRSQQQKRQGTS

UniProt P46734 = biological target: T3, UniProt P46734
T3 sequence (whole entry): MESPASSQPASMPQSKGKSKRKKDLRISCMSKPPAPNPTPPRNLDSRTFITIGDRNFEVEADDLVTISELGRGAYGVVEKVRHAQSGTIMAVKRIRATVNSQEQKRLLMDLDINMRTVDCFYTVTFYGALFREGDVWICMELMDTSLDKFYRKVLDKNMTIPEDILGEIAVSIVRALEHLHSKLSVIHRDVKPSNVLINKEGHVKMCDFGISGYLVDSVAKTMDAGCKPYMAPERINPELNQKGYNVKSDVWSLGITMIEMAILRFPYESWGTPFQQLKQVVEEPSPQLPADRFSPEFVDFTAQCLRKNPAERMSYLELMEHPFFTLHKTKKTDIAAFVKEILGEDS

UniProt Q9UEE5 = biological target: T4, UniProt Q9UEE5
T4 sequence (whole entry): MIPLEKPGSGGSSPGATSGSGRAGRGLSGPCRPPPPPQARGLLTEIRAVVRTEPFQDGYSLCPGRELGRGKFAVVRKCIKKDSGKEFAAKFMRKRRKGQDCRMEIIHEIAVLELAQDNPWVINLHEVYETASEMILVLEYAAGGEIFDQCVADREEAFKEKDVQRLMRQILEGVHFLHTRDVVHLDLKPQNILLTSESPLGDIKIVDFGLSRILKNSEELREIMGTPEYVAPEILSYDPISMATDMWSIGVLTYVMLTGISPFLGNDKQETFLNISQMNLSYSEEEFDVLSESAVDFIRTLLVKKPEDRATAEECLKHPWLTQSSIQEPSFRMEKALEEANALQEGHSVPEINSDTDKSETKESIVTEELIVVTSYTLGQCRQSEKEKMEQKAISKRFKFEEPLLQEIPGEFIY

UniProt Q9Y2U5 = biological target: T5, UniProt Q9Y2U5
T5 sequence (whole entry): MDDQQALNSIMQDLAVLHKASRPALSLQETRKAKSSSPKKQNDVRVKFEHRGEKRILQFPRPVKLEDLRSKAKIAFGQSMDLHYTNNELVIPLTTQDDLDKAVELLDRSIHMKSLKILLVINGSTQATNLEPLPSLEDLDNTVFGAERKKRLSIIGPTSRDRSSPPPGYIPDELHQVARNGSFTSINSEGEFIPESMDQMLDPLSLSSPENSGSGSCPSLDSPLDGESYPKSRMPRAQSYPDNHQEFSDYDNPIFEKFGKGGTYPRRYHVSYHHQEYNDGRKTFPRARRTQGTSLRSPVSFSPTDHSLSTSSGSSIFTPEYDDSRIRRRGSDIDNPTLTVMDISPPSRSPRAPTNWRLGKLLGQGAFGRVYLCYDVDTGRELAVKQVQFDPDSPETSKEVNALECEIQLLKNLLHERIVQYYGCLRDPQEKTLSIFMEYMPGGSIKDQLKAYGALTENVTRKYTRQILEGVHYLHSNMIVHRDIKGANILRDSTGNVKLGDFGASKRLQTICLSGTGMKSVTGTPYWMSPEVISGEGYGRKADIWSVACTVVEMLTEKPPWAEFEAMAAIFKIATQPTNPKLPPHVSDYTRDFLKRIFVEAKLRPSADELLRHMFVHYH

Measured: pIC50

CCc1cnn2c(NCc3ccc[n+]([O-])c3)cc(N3CCCC[C@H]3CCO)nc12 [dinaciclib]
< 4.52: all assays above
